For orientation: Kd means the concentration at which binding is half-saturated. A lower Kd goes with higher affinity. What is called koff is the first-order rate constant of dissociation. The term kon denotes the second-order rate constant of association.

This is an account of results in publication PMC11440508, “Dually Labeled Neurotensin NTS1R Ligands for Probing Radiochemical and Fluorescence-Based Binding Assays” (Journal of Medicinal Chemistry, 2024).

Assay [1] deals with T1, NTS1R (Homo sapiens, UniProt P30989). Kind of assay: High-content imaging (HCI) saturation binding, adherent CHO-hNTS1R cells. The settings on record: 23 °C. The procedure: CHO-hNTS1R or HT-29 cells were seeded one day prior to the experiment into the inner 60 wells of a black clear-bottom 96-well plate (Greiner 655090, Greiner Bio-One) at a concentration of 25,000 cells/well and 35,000 cells/well, respectively. On the day of the assay, the medium was removed by suction and the cells were washed with DPBS1 (50 μL). After this step, DPBS1 (180 or 200 μL) containing the nuclear dye Hoechst H33342 (2 μg/mL) was added. This solution also contained the fluorescent ligand (kinetic studies, competition binding experiments), or the fluorescent ligand was added separately (saturation binding experiments). […] Shortly before subjecting the plate to the plate reader for image acquisition, the liquid was removed by suction and DPBS1 (100 μL) was added. Images were acquired using an IX Micro plate reader (Molecular Devices, Sunnyvale, CA) using a 20× Plan Fluor ELWD objective, a xenon lamp light source and DAPI and TRITC excitation/emission filter cubes for imaging nuclear and fluorescent ligand staining, respectively. […] Two sites/well were measured throughout. Images were analyzed by granularity analysis (2–3 μm diameter granules; MetaXpress 5.3, Molecular Devices, San Diego, CA) and the integrated intensity (pixel intensity × granule area) per cell was used as the raw measurement of fluorescent ligand binding. […]
T1 sequence (P30989 whole entry): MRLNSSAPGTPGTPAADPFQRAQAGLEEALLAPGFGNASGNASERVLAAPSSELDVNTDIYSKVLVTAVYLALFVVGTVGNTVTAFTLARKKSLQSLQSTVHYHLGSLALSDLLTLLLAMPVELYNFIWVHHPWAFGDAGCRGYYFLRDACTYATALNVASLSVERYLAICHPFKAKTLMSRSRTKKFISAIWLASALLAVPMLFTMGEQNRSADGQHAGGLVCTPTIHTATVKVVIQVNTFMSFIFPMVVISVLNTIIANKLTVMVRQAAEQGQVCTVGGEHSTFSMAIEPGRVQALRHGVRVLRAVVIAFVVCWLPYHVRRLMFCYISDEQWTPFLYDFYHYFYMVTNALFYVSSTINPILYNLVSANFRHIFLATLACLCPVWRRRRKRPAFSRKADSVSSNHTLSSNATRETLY

Assay [2] deals with T1, NTS1R. Description: Flow cytometric (FC) association and dissociation kinetics, suspended CHO-hNTS1R cells. Type of assay: binding. To be noted: FC (suspension); for koff: 23 °C, read-out: koff [min^–1] (converted); for kon: calculated from kobs, koff and ligand concentration, read-out: kon [min^–1 nM^–1] (converted). The procedure: Flow cytometry-based NTS1R binding studies were performed with intact CHO-hNTS1R (all kind of experiments) and HT-29 cells (only saturation binding) using a BD FACSCanto II (Becton Dickinson, Heidelberg, Germany), equipped with an argon laser (488 nm) and a red diode laser (640 nm), and a BD High Throughput Sampler (HTS unit) for microtiter plates. Saturation and competition binding experiments were performed in triplicate in 96-well polypropylene plates (Brand 701330, Wertheim, Germany) using the HTS unit for sample injection. Association and dissociation experiments were performed in duplicate in 5 mL polypropylene tubes (VWR, Radnor) using the standard injection port of the flow cytometer. The following gain settings for forward and sideward scatter were applied: FSC, 0 V; SSC, 252 V. Fluorescence was recorded using the PE-channel (excitation: 488 nm, emission: 585 ± 21) nm with a PMT gain of 330–400 V. For measurements using the HTS unit, 45 μL of the sample were injected with a speed of 1.5 μL/s. For measurements, requiring the use of the standard injection port, the medium flow rate ([…]) was used. Measurements were stopped after 30 s (HTS unit) or after counting of 500–3000 gated events (standard injection port).
Cells were seeded in T75 culture flasks 3–4 days (CHO-hNTS1R cells) or 5–6 days (HT-29 cells) prior to the experiment. On the day of the experiment, cells were detached by trypsinization, suspended in DPBS1 and centrifuged at 200g at rt for 5 min. […]
5 mL polypropylene tubes were prefilled with 2000 μL of cell suspension and DMSO/H2O 2:8 v/v (20 μL) were added (determination of total binding). […] Specific binding data, obtained by subtracting triplicate mean values of unspecific binding from triplicate mean values of total binding, were plotted against the time and analyzed by a three-parameter equation describing an exponential rise to a maximum (one-phase association, Y0 constrained to zero, GraphPad Prism 5) to yield the observed association rate constant kobs. […]
5 mL polypropylene tubes were prefilled with 2000 μL of cell suspension. […] After different periods of time (1–240 min), sample aliquots were measured by placing the tube in the injection port of the flow cytometer. Specific binding data, obtained by subtracting triplicate mean values of unspecific binding from triplicate mean values of total binding, were plotted against the time and analyzed by a three-parameter equation describing an incomplete monophasic exponential decline (one phase decay, GraphPad Prism 5) to obtain koff values. […]
The kon and Kd(kin) values were calculated as described for high-content imaging binding experiments.

For the molecule `CCC(=O)NCCCCNC(=O)NC(=N)NCCC[C@H](NC(=O)[C@@H]1CCCN1C(=O)[C@@H](NC(=O)CCc1cn(CCCNC(=O)CCC#Cc2ccc3c(c2)C(C)(C)C2=C4C=C5C6=[N+](CCC5OC4CCN23)c2ccc(S(=O)(=O)[O-])cc2C6(C)C)nn1)C1CCNCC1)C(=O)N[C@@H](CCCNC(=N)N)C(=O)N1CCC[C@H]1C(=O)N[C@H](C(=O)N[C@H](C(=O)N[C@@H](CC(C)C)C(=O)O)[C@@H](C)CC)C(C)(C)c1ccc(O)cc1` (stereo partly drawn) [Compound 18, N^α-(3-(N-(1-(8-Sulfonato-5,5,27,27-tetramethyl-16-oxa-20-aza-12-azoniaheptacyclo[15.11.0.03,15.04,12.06,11.020,28.021,26]octacosa-1(28),2,4(12),6(11),7,9,21(26),22,24-nonaen-24-yl)-5-oxopentyn-5-yl)-1-aminoprop-3-yl-1H-1,2,3-triazol-4-yl)propanoyl)-2-(piperidin-4-yl)-Gly-Pro-N^ω-[(4-(N-propanoyl)aminobutyl)aminocarbonyl]Arg-Arg-Pro-β,β-dimethyl-L-Tyr-Ile-Leu Tris(hydrotrifluoroacetate)], the affinity at NTS1R [1], expressed as Kd, was 1.3 ± 0.3 nM. Besides, at NTS1R [2], the koff was 0.0004 s⁻¹ and the kon is 2.67e+06 M⁻¹ s⁻¹.
The molecule `CCC(=O)NCCCCNC(=O)N=C(N)NCCC[C@H](NC(=O)[C@@H]1CCCN1C(=O)[C@@H](NC(=O)CCc1cn(CCCNC(=O)c2ccc(-c3c4ccc(=[N+](C)C)cc-4oc4cc(N(C)C)ccc34)c(C(=O)[O-])c2)nn1)C1CCNCC1)C(=O)N[C@@H](CCCNC(=N)N)C(=O)N1CCC[C@H]1C(=O)N[C@@H](Cc1ccc(O)cc1)C(=O)N[C@H](C(=O)N[C@@H](CC(C)C)C(=O)O)[C@@H](C)CC` [Compound 13, N^α-(3-(1-N-((1-Carboxylato-2-(6-(dimethylamino)-3-(dimethyliminio)-3H-xanthen-9-yl)phen-5-yl)1-oxomethyl)aminoprop-3-yl-1H-1,2,3-triazol-4-yl)propanoyl)-2-(piperidin-4-yl)-Gly-Pro-N^ω-[(4-(N-propanoyl)aminobutyl)aminocarbonyl]Arg-Arg-Pro-Tyr-Ile-Leu Tris(hydrotrifluoroacetate)] came in with a Kd on NTS1R [1] of 1.1 ± 0.2 nM. Also, at NTS1R [2], the koff is 0.000333 s⁻¹ and the kon is 8e+06 M⁻¹ s⁻¹.
